Columns and labels:
NMDA receptor [1] = assay: [3H]MK-801 binding assay, NMDA receptors in guinea pig brain membranes; details: for Relative affinity: compared to that of Memantine
Experimental: Hartley guinea pigs were sacrificed, and their brains were quickly removed and weighed. The brains then were homogenized in 50 mM Tris HCl buffer, pH 7.7, using a Polytron homogenizer. The homogenate was centrifuged at 40,000×g for 15 min, rehomogenized, and centrifuged again. The final pellet was resuspended in Tris-HCl, pH 7.7, at a final concentration of 6.67 mg original wet weight of tissue/ml. […] The samples were then filtered through glass fiber filters on a Tomtec cell harvester. The filters were washed 3 times with 3 ml of cold buffer. Filters were dried overnight and counted next day on a Wallac Betaplate Reader.
The binding experiments were conducted as follows. […] For each compound, graphs were prepared containing individual competition curves obtained for that compound. IC50 values and Hill coefficients were calculated using the program Prism. Ki values were calculated using the Chang Prusoff transformation: Ki═IC50/(1+L/Kd)
where L is radioligand concentration and Kd is the binding affinity of the radioligand, as determined previously by saturation analysis. […] In each experiment, one standard compound was simultaneously run on each 96 well plate.

[2] = Dissolving compounds for 10 mM stock solutions; type: physicochemical; details: molecusol, acetic acid, propylene glycol, then hot water
Experimental: Following assay establishment, the test compounds were tested for binding affinities. The concentrations selected for the experiments were chosen according to what was found for memantine in our assay. The first task was to dissolve the compounds and make up the 10 mM stock solution for further experiments. Those compounds that were made into salt format were easy to dissolve in deionized water, but the other compounds were difficult to bring into solution. Several “assay friendly” solvents have been tried, such as molecusol, acetic acid and propylene glycol followed by putting the vial into hot water.

NMDA receptor [3] = assay: Whole-cell voltage-clamp recording of NMDA evoked currents in hypocretin neurons of hypothalamic slices; type: cell-based, mouse; details: washout of the compound

Row | Relative affinity (NMDA receptor [1]) | solubility in assay friendly solvents [2] | Structure (SMILES) | other results
1 | 0.077 | went into solution | OC12CC3CC4C1CC1CC2C(C3)C4(O)C1 [MDT-12, 1,6-dihydroxydiamantane] | –
2 | 0.006 | – | NC12CC3CC4C1CC1CC2C(C3)C4(N)C1 [MDT-4, 1,6-diaminodiamantane] | –
3 | – | went into solution | OC12CC3C4CC5C6CC7(O)CC5C(C4C1)C(C2)(C7)C36 [MDT-15, 9,15-dihydroxytriamantane] | –
4 | – | went into solution | OC12CC3C4CC5(O)CC3C(C1)C(C5)C4C2 [MDT-14, 4,9-dihydroxydiamantane] | –
5 | – | – | CC12CC3CC4C1CC1CC4[C@](N)(C3)C2C1 [MDT-22, 1-methyl-7-aminodiamantane] | reversibility of inhibition of NMDA evoked currents upon washout (NMDA receptor [3]): reversible
6 | 0.017 | – | NC12CC3C4CC5CC3C(C1)C(C5)C4C2 [MDT-3, 4-aminodiamantane] | –
7 | 0.094 | – | NC12CC3CC4C5CC(CC41)CC2C5C3 [MDT-2, 1-aminodiamantane] | –
8 | – | – | CC12CC3CC4C1CC1CC2C(N)(C3)C4(C)C1 (stereo not drawn) [MDT-23, 1,6-dimethyl-2-aminodiamantane] | reversibility of inhibition of NMDA evoked currents upon washout (NMDA receptor [3]): not reversible
9 | 0.002 | – | NC12CC3C4CC5(N)CC3C(C1)C(C5)C4C2 [MDT-5, 4,9-diaminodiamantane] | –
10 | – | went into solution | OC12CC3CC4C1CC1CC4C(O)(C3)C2C1 [MDT-13, 1,7-dihydroxydiamantane] | –
11 | 0.015 | went into solution | OC12CC3CC4C5CC(CC41)CC2C5C3 [MDT-10, 1-hydroxydiamantane] | –
12 | – | went into solution | OC12CC3C4CC5CC3C(C1)C(C5)C4C2 [MDT-11, 4-diamantanol] | –

Row | Structure (SMILES) | Relative affinity (NMDA receptor [1]) | solubility in assay friendly solvents [2] | other results
13 | CC12CC3CC(C)(C1)CC(N)(C3)C2 [Memantine, 1-amino-3,5-dimethyladamantane, reference compound] | 1 | – | Ki (NMDA receptor [1]; [3H]MK-801 1 nM, guinea pig brain membranes, read-out: Ki at the NMDA site (standard compounds)): 602 ± 27 nM
14 | O=C(O)C12CC3CC4C1CC1CC2C(C3)C4(C(=O)O)C1 [MDT-19, 1,6-diamantane dicarboxylic acid] | 0.091 | did not go into solution, or came out with time | –
15 | O=C(O)C12CC3CC4C5CC(CC41)CC2C5C3 [MDT-17, 1-diamantane carboxylic acid] | 0.063 | did not go into solution, or came out with time | –
16 | O=C(O)C12CC3C4CC5(C(=O)O)CC3C(C1)C(C5)C4C2 [MDT-20, 4,9-diamantane dicarboxylic acid] | – | did not go into solution, or came out with time | –
